Values quoted from earlier work as cited in US20130131091A1, “HARMFUL ORGANISM CONTROL AGENT” (priority 2010, published 2013).

Columns and labels:
[1] = system: larvae of Helicoverpa zea
[2] = system: Tenebrio molitor L
[3] = system: Plutella xylostella L larvae

Measured: insecticidal activity

CC(=O)OCC1(C)C(OC(C)=O)CCC2(C)C1CC(OC(C)=O)C1(C)Oc3cc(-c4cccnc4)oc(=O)c3C(O)C21 (stereo not drawn) [pyripyropene A]
insecticidal activity: all assays above
